Laboratory results from patent US12691182B2, “Maytansinoid derivatives, conjugates thereof, and methods of use” (priority 2016, dated 2026).

Experiments:
Type in all cases: cell-based
[1] = system: C4-2 (STEAP2+) cells; experiment: In vitro cytotoxicity assay, C4-2 cells (CellTiter-Glo viability); conditions: naked payload, 5 days; for C4-2 % kill: % kill reported for the highest dose; for IC50: CellTiter-Glo
Description: (§1) In this Example, the ability of various antibody-drug conjugates and naked payloads to kill antigen-expressing tumor cells in vitro was assessed.
C4-2 (STEAP2+) cells were seeded in 96 well plates at 4000 cells per well in complete growth media and grown overnight. For cell viability curves, serially diluted conjugates or naked payloads were added to the cells at final concentrations ranging from 100 nM to 5 pM and incubated for 5 days. To measure viability, cells were incubated with CellTiter-Glo reagents for 5 minutes and luminescence was determined on a Victor plate reader (PerkinElmer). IC50 values were determined from a four-parameter logistic equation over a 10-point response curve (GraphPad Prism).
(§2) All IC50s are expressed in nM concentration and % kill is reported for the highest dose. All curves and IC50 values are corrected for payload equivalents. The plot of % Cell Viability vs. Log 10 [M]

[2] = system: SKBR3 (Her2+) cells; experiment: In vitro cytotoxicity assay, SKBR3 cells (CCK8 viability); conditions: naked payload, SKBr-3 cells, 3 days; for SKBr-3 % kill: % kill reported for the highest dose; for IC50: CCK8
Description: as §1
(§3) SKBR3 (Her2+) cells were seeded in 96 well plates at 8000 cells per well in complete growth media and grown overnight. For cell viability curves, serially diluted conjugates or naked payloads were added to the cells at final concentrations ranging from 100 nM to 5 pM and incubated for 3 days. To measure viability, cells were incubated with CCK8 (Dojindo) for the final 2 hours and the absorbance at 450 nm (OD450) was determined on a Victor (Perkin Elmer). Background OD450 levels determined from digitonin (40 nM) treated cells were subtracted from all wells and viability is expressed as a percentage of the untreated controls. IC50 values were determined from a four-parameter logistic equation over a 10-point response curve (GraphPad Prism). […] All curves and IC50 values are corrected for payload equivalents. The plot of % Cell Viability vs. Log 10 [M]
as §2

[3] = system: Ovcar3 (Muc16+) cells; experiment: In vitro cytotoxicity assay, Ovcar3 cells (CCK8 viability); conditions: naked payload, 3 days; for Ovcar3 % kill: % kill reported for the highest dose; for IC50: CCK8
Description: as §1
as §3, with “Ovcar3 (Muc16+)” for “SKBR3 (Her2+)”, “3000” for “8000”
as §2

Maytan-3-O-carbamoyl-N-(2-methyl-3-amino)benzene [Compound 30d]
C4-2 % kill [1]: **** (**** indicates % kill greater than, or equal to, 95 and less than 99)
IC50 [1]: 1 to 10 nM
SKBr-3 % kill [2]: **** (**** indicates % kill greater than, or equal to, 95 and less than 99)
IC50 [2]: 1 to 10 nM

Maytan-3-O-carbamoyl-N-(2-methoxy-4-amino)benzene [Compound 30k]
IC50 [1]: ≥ 10 nM
Ovcar3 % kill [3]: *** (*** indicates % kill greater than, or equal to, 90 and less than 95)
IC50 [3]: 0.1 to 1 nM
SKBr-3 % kill [2]: ***** (***** indicates % kill greater than, or equal to, 99)
IC50 [2]: 1 to 10 nM

Maytan-3-O-carbamoyl-N-(6-methyl-3-amino)benzene [Compound 30e]
C4-2 % kill [1]: **** (**** indicates % kill greater than, or equal to, 95 and less than 99)
IC50 [1]: 1 to 10 nM
SKBr-3 % kill [2]: *** (*** indicates % kill greater than, or equal to, 90 and less than 95)
IC50 [2]: 1 to 10 nM

COc1cc2cc(c1Cl)N(C)C(=O)C[C@H](OC(=O)Nc1ccc(N)cc1C)[C@]1(C)O[C@H]1[C@H](C)[C@@H]1C[C@@](O)(NC(=O)O1)[C@H](OC)/C=C/C=C(\C)C2 [Compound 30c, Maytan-3-O-carbamoyl-N-(2-methyl-4-amino)benzene]
C4-2 % kill [1]: ** (** indicates % kill greater than, or equal to, 85 and less than 90)
IC50 [1]: ≥ 10 nM
Ovcar3 % kill [3]: ** (** indicates % kill greater than, or equal to, 85 and less than 90)
IC50 [3]: 1 to 10 nM
SKBr-3 % kill [2]: *** (*** indicates % kill greater than, or equal to, 90 and less than 95)
IC50 [2]: 1 to 10 nM

COc1cc2cc(c1Cl)N(C)C(=O)CC(OC(=O)Nc1ccc(Cl)cc1N)C1(C)OC1C(C)C1CC(O)(NC(=O)O1)C(OC)C=CC=C(C)C2 (centres unmarked) [Compound 30b, Maytan-3-O-carbamoyl-N-(4-chloro-2-amino)benzene]
C4-2 % kill [1]: * (* indicates % kill less than 85)
IC50 [1]: ≥ 10 nM
SKBr-3 % kill [2]: **** (**** indicates % kill greater than, or equal to, 95 and less than 99)
IC50 [2]: 0.1 to 1 nM

COc1cc2cc(c1Cl)N(C)C(=O)C[C@H](OC(=O)Nc1ccc(F)cc1N)[C@]1(C)O[C@H]1[C@H](C)[C@@H]1C[C@@](O)(NC(=O)O1)[C@H](OC)/C=C/C=C(\C)C2 [Compound 30g, Maytan-3-O-carbamoyl-N-(4-fluoro-2-amino)benzene]
C4-2 % kill [1]: ***** (***** indicates % kill greater than, or equal to, 99)
IC50 [1]: 1 to 10 nM
SKBr-3 % kill [2]: ***** (***** indicates % kill greater than, or equal to, 99)
IC50 [2]: 0.1 to 1 nM

COc1cc2cc(c1Cl)N(C)C(=O)CC(OC(=O)Nc1c(C)cccc1N)C1(C)OC1C(C)C1CC(O)(NC(=O)O1)C(OC)C=CC=C(C)C2 (centres unmarked) [Compound 30f, Maytan-3-O-carbamoyl-N-(6-methyl-2-amino)benzene]
C4-2 % kill [1]: **** (**** indicates % kill greater than, or equal to, 95 and less than 99)
IC50 [1]: 1 to 10 nM
SKBr-3 % kill [2]: ***** (***** indicates % kill greater than, or equal to, 99)
IC50 [2]: 0.1 to 1 nM

COc1cc2cc(c1Cl)N(C)C(=O)C[C@H](OC(=O)Nc1cc(N3CCOCC3)c(N)cc1C)[C@]1(C)O[C@H]1[C@H](C)[C@@H]1C[C@@](O)(NC(=O)O1)[C@H](OC)/C=C/C=C(\C)C2 [Compound 30p, Maytan-3-O-carbamoyl-N-(4-amino-2-methyl-5-morpholin-4-yl)benzene]
IC50 [1]: ≥ 10 nM
SKBr-3 % kill [2]: * (* indicates % kill less than 85)
IC50 [2]: ≥ 10 nM

COc1cc2cc(c1Cl)N(C)C(=O)CC(OC(=O)Nc1ccc(N)c(Cl)c1)C1(C)OC1C(C)C1CC(O)(NC(=O)O1)C(OC)C=CC=C(C)C2 (centres unmarked) [Compound 30a, Maytan-3-O-carbamoyl-N-(3-chloro-4-amino)benzene]
C4-2 % kill [1]: ***** (***** indicates % kill greater than, or equal to, 99)
IC50 [1]: 1 to 10 nM
Ovcar3 % kill [3]: *** (*** indicates % kill greater than, or equal to, 90 and less than 95)
IC50 [3]: 0.1 to 1 nM
SKBr-3 % kill [2]: **** (**** indicates % kill greater than, or equal to, 95 and less than 99)
IC50 [2]: 0.1 to 1 nM

COc1cc2cc(c1Cl)N(C)C(=O)CC(OC(=O)Nc1cc(Cl)c(F)cc1N)C1(C)OC1C(C)C1CC(O)(NC(=O)O1)C(OC)C=CC=C(C)C2 (centres unmarked) [Compound 30o, Maytan-3-O-carbamoyl-N-(4-fluoro-5-chloro-2-amino)benzene]
C4-2 % kill [1]: * (* indicates % kill less than 85)
IC50 [1]: ≥ 10 nM
SKBr-3 % kill [2]: ***** (***** indicates % kill greater than, or equal to, 99)
IC50 [2]: 0.1 to 1 nM

COc1cc2cc(c1Cl)N(C)C(=O)C[C@H](OC(=O)Nc1ccc(N)cc1Br)[C@]1(C)O[C@H]1[C@H](C)[C@@H]1C[C@@](O)(NC(=O)O1)[C@H](OC)/C=C/C=C(\C)C2 [Compound 30m, Maytan-3-O-carbamoyl-N-(2-bromo-4-amino)benzene]
C4-2 % kill [1]: ***** (***** indicates % kill greater than, or equal to, 99)
IC50 [1]: 0.01 to 0.1 nM
Ovcar3 % kill [3]: ** (** indicates % kill greater than, or equal to, 85 and less than 90)
IC50 [3]: 0.001 to 0.01 nM
SKBr-3 % kill [2]: ***** (***** indicates % kill greater than, or equal to, 99)
IC50 [2]: 0.01 to 0.1 nM

COc1cc2cc(c1Cl)N(C)C(=O)CC(OC(=O)Nc1ccc(N)c(C(F)(F)F)c1)C1(C)OC1C(C)C1CC(O)(NC(=O)O1)C(OC)C=CC=C(C)C2 (centres unmarked) [Compound 30l, Maytan-3-O-carbamoyl-N-(3-trifluoromethyl-4-amino)benzene]
IC50 [1]: ≥ 10 nM
Ovcar3 % kill [3]: *** (*** indicates % kill greater than, or equal to, 90 and less than 95)
IC50 [3]: 0.1 to 1 nM
SKBr-3 % kill [2]: ***** (***** indicates % kill greater than, or equal to, 99)
IC50 [2]: 0.1 to 1 nM

COc1ccc(NC(=O)O[C@H]2CC(=O)N(C)c3cc(cc(OC)c3Cl)C/C(C)=C/C=C/[C@@H](OC)[C@@]3(O)C[C@H](OC(=O)N3)[C@@H](C)[C@@H]3O[C@@]23C)c(N)c1 [Compound 30i, Maytan-3-O-carbamoyl-N-(4-methoxy-2-amino)benzene]
C4-2 % kill [1]: ***** (***** indicates % kill greater than, or equal to, 99)
IC50 [1]: ≥ 10 nM
SKBr-3 % kill [2]: ***** (***** indicates % kill greater than, or equal to, 99)
IC50 [2]: 1 to 10 nM

COc1cc2cc(c1Cl)N(C)C(=O)C[C@H](OC(=O)Nc1cc(N3CCCC3)c(N)cc1C)[C@]1(C)O[C@H]1[C@H](C)[C@@H]1C[C@@](O)(NC(=O)O1)[C@H](OC)/C=C/C=C(\C)C2 [Compound 30q, Maytan-3-O-carbamoyl-N-(4-amino-2-methyl-5-pyrrolidin-1-yl)benzene]
C4-2 % kill [1]: *** (*** indicates % kill greater than, or equal to, 90 and less than 95)
IC50 [1]: ≥ 10 nM
SKBr-3 % kill [2]: ***** (***** indicates % kill greater than, or equal to, 99)
IC50 [2]: 1 to 10 nM

COc1cc2cc(c1Cl)N(C)C(=O)C[C@H](OC(=O)Nc1cc(N)ccc1F)[C@]1(C)O[C@H]1[C@H](C)[C@@H]1C[C@@](O)(NC(=O)O1)[C@H](OC)/C=C/C=C(\C)C2 [Compound 30h, Maytan-3-O-carbamoyl-N-(2-fluoro-5-amino)benzene]
C4-2 % kill [1]: * (* indicates % kill less than 85)
IC50 [1]: 1 to 10 nM
SKBr-3 % kill [2]: **** (**** indicates % kill greater than, or equal to, 95 and less than 99)
IC50 [2]: 0.1 to 1 nM

Maytan-3-O-carbamoyl-N-(4-trifluoromethoxy-2-amino)benzene [Compound 30n]
C4-2 % kill [1]: ***** (***** indicates % kill greater than, or equal to, 99)
IC50 [1]: ≥ 10 nM
SKBr-3 % kill [2]: ***** (***** indicates % kill greater than, or equal to, 99)
IC50 [2]: 1 to 10 nM

COc1cc(NC(=O)OC2CC(=O)N(C)c3cc(cc(OC)c3Cl)CC(C)=CC=CC(OC)C3(O)CC(OC(=O)N3)C(C)C3OC23C)ccc1N (centres unmarked) [Compound 30j, Maytan-3-O-carbamoyl-N-(3-methoxy-4-amino)benzene]
C4-2 % kill [1]: *** (*** indicates % kill greater than, or equal to, 90 and less than 95)
IC50 [1]: ≥ 10 nM
Ovcar3 % kill [3]: ** (** indicates % kill greater than, or equal to, 85 and less than 90)
IC50 [3]: 1 to 10 nM
SKBr-3 % kill [2]: **** (**** indicates % kill greater than, or equal to, 95 and less than 99)
IC50 [2]: 0.1 to 1 nM
